Key:
[1] = target: T1, human EAAT3 (Homo sapiens, UniProt P43005); experiment: FLIPR Membrane Potential (FMP) assay; format: cell-based; settings: HEK-293 cells stably expressing human EAAT3; L-glutamate as agonist at EC80; antagonist applied 15 min before; Kb by Cheng-Prusoff from IC50
T1 construct: expressed in transfected cells; host or cells: HEK-293
T1 sequence (P43005 1-524): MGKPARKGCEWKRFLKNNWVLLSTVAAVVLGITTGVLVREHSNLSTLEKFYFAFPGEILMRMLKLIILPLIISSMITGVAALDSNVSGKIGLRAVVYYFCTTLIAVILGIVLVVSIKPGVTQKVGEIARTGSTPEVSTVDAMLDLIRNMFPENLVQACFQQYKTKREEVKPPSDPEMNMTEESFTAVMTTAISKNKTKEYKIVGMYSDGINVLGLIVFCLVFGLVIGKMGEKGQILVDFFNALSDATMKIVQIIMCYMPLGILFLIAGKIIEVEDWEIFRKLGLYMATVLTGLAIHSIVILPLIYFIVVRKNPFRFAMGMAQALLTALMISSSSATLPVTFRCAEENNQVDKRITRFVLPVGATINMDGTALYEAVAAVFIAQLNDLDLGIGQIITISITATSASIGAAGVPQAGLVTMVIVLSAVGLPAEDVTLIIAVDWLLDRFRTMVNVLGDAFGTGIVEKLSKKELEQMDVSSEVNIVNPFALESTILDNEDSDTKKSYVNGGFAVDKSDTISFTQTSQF
Method: The FLIPR Membrane Potential (FMP) assay
HEK-293 cells stably expressing human EAAT3 were seeded at 55 000 cells/well in growth medium (DMEM glutamate free (Invitrogen 11960-044), 1% Pen Strep (10 ml/l GIBCO BRL N^o 15140-023), 10% FCS non dialysed heat inactivated, 5 mg/l puromycin) in poly-D-lysine treated 96-well black microtiter plates with clear-bottom. After 24 h, the growth medium was removed and 100 μl/well of Krebs buffer (140 mM NaCl, 4.7 mM KCl, 2.5 mM CaCl2), 1.2 mM MgCl2, 11 mM HEPES, 10 mM D-glucose, pH=7.4) added. The cells were then loaded by adding 100 μl/well FMP assay dye (FLIPR Membrane Potential assay reagent, Molecular Devices). The 96-well plates were then incubated at 37° C. for 1 h. The depolarization of the cells will cause more dye to enter in the cells, where it will bind to intracellular proteins and lipids and cause an increase in the fluorescence signal. Antagonist potency at human EAAT3 was determined by using L-glutamate as agonist at a concentration which gives 80% of the maximum response. The antagonists were applied 15 min before the application of the agonist L-glutamate. The assays were performed at room temperature and measurements done by using a Fluorometric Imaging Plate Reader (FLIPR, Molecular Devices) and filter #2. Responses were measured as peak increase in fluorescence minus basal (i.e. fluorescence without addition of L-glutamate). Kb was determined using the Cheng-Prusoff equation Kb=IC50/[1+(A/EC50)], where IC50 is the concentration of the antagonist producing 50% inhibition, A is the concentration of the agonist against which the IC50 is being determined (at EC80) and EC50 is the concentration of the agonist producing 50% […].

Compound | Kb [1] | melting point
CC1(NC(=O)c2cc(-c3ccc(F)cc3)nc(-c3ccnn3C(C)(C)C)c2)CCS(=O)(=O)C1 (racemic) [Example 9, (RS)-2-(2-tert-Butylpyrazol-3-yl)-6-(4-fluorophenyl)-N-(3-methyl-1,1-dioxothiolan-3-yl)-pyridine-4-carboxamide] | 190 nM | 192 °C
Cn1nccc1-c1cc(C(=O)NC(C)(C)C)cc(-c2ccc(Cl)cc2)n1 [Example 1, N-tert-Butyl-2-(4-chlorophenyl)-6-(2-methyl-pyrazol-3-yl)-pyridine-4-carboxamide] | 370 nM | 184 °C
Cn1nccc1-c1cc(C(=O)NC(C)(C)C)cc(-c2ccc(F)cc2)n1 [Example 2, N-tert-Butyl-2-(4-fluorophenyl)-6-(2-methyl-pyrazol-3-yl)-pyridine-4-carboxamide] | 560 nM | 161 °C
CC(C)(C)NC(=O)c1cc(-c2ccc(F)cc2)nc(-c2ccnn2C(C)(C)C)c1 [Example 3, N-tert-Butyl-2-(2-tert-butyl-pyrazol-3-yl)-6-(4-fluorophenyl)-pyridine-4-carboxamide] | 65 nM | 226 °C
CC(C)(C)NC(=O)c1cc(-c2ccc(Cl)cc2)nc(-c2ccnn2C(C)(C)C)c1 [Example 4, N-tert-Butyl-2-(2-tert-butyl-pyrazol-3-yl)-6-(4-chlorophenyl)-pyridine-4-carboxamide] | 160 nM | 204 °C
CC(C)(C)NC(=O)c1cc(-c2ccc(C(F)(F)F)cc2)nc(-c2ccnn2C(C)(C)C)c1 [Example 5, N-tert-Butyl-2-(2-tert-butyl-pyrazol-3-yl)-6-[4-(trifluoromethyl)-phenyl]-pyridine-4-carboxamide] | 290 nM | 222 °C
CC(C)n1nccc1-c1cc(C(=O)NC(C)(C)C)cc(-c2ccc(C(F)(F)F)cc2)n1 [Example 6, N-tert-Butyl-2-(2-propan-2-yl-pyrazol-3-yl)-6-[4-(trifluoromethyl)-phenyl]-pyridine-4-carboxamide] | 450 nM | 173 °C
CC(C)n1nccc1-c1cc(C(=O)NC(C)(C)C)cc(-c2ccc(Cl)cc2)n1 [Example 7, N-tert-Butyl-2-(4-chlorophenyl)-6-(2-propan-2-yl-pyrazol-3-yl)-pyridine-4-carboxamide] | 370 nM | 207 °C
CC(C)n1nccc1-c1cc(C(=O)NC(C)(C)C)cc(-c2ccc(F)cc2)n1 [Example 8, N-tert-Butyl-2-(4-fluorophenyl)-6-(2-propan-2-yl-pyrazol-3-yl)-pyridine-4-carboxamide] | 260 nM | 200 °C
CCC(C)(C)NC(=O)c1cc(-c2ccc(F)cc2)nc(-c2ccnn2C(C)(C)C)c1 [Example 10, 2-(2-tert-Butylpyrazol-3-yl)-6-(4-fluorophenyl)-N-(2-methylbutan-2-yl)-pyridine-4-carboxamide] | 140 nM | 154 °C
CCn1nccc1-c1cc(C(=O)NC(C)(C)C)cc(-c2ccc(F)cc2)n1 [Example 11, N-tert-Butyl-2-(2-ethylpyrazol-3-yl)-6-(4-fluorophenyl)-pyridine-4-carboxamide] | 360 nM | 170 °C
CC(C)(C)NC(=O)c1cc(-c2ccc(F)cc2)nc(-c2ccnn2CC2CC2)c1 [Example 12, N-tert-Butyl-2-[2-(cyclopropylmethyl)-pyrazol-3-yl]-6-(4-fluorophenyl)-pyridine-4-carboxamide] | 310 nM | 203 °C
CC(C)(C)NC(=O)c1cc(-c2ccc(C3CC3)cc2)nc(-c2ccnn2C(C)(C)C)c1 [Example 17, N-tert-Butyl-2-(2-tert-butyl-pyrazol-3-yl)-6-(4-cyclopropyl-phenyl)-pyridine-4-carboxamide] | 110 nM | 
CC(C)(C)NC(=O)c1cc(-c2ccc(C#N)cc2)nc(-c2ccnn2C(C)(C)C)c1 [Example 18, N-tert-Butyl-2-(2-tert-butyl-pyrazol-3-yl)-6-(4-cyano-phenyl)-pyridine-4-carboxamide] | 89 nM | 
CC(C)(C)NC(=O)c1cc(-c2ccc(F)c(Cl)c2)nc(-c2ccnn2C(C)(C)C)c1 [Example 21, N-tert-Butyl-2-(2-tert-butyl-pyrazol-3-yl)-6-(3-chloro-4-fluoro-phenyl)-pyridine-4-carboxamide] | 110 nM | 
COc1ccc(-c2cc(C(=O)NC(C)(C)C)cc(-c3ccnn3C(C)(C)C)n2)cc1 [Example 23, N-tert-Butyl-2-(2-tert-butyl-pyrazol-3-yl)-6-(4-methoxy-phenyl)-pyridine-4-carboxamide] | 85 nM | 
Cc1cc(-c2cc(C(=O)NC(C)(C)C)cc(-c3ccnn3C(C)(C)C)n2)ccc1F [Example 25, N-tert-Butyl-2-(2-tert-butyl-pyrazol-3-yl)-6-(4-fluoro-3-methyl-phenyl)-pyridine-4-carboxamide] | 74 nM | 

Continued, values first:

Kb [1] | melting point | Compound
530 nM |  | CC(C)n1nccc1-c1cc(C(=O)NC2(C)CCS(=O)(=O)C2)cc(-c2ccc(F)cc2)n1 (racemic) [Example 43, (RS)-2-(4-Fluorophenyl)-N-(3-methyl-1,1-dioxothiolan-3-yl)-6-(2-propan-2-yl-pyrazol-3-yl)-pyridine-4-carboxamide]
560 nM |  | CC(C)n1nccc1-c1cc(C(=O)NC(C)(C)C)cc(-c2ccc(C3CC3)cc2)n1 [Example 29, N-tert-Butyl-2-(4-cyclopropyl-phenyl)-6-(2-propan-2-yl-pyrazol-3-yl)-pyridine-4-carboxamide]
1870 nM |  | CC(C)n1nccc1-c1cc(C(=O)NC(C)(C)C)cc(-c2ccc(C#N)cc2)n1 [Example 30, N-tert-Butyl-2-(4-cyano-phenyl)-6-(2-propan-2-yl-pyrazol-3-yl)-pyridine-4-carboxamide]
240 nM |  | CC(C)n1nccc1-c1cc(C(=O)NC(C)(C)C)cc(-c2ccc(F)c(F)c2)n1 [Example 31, N-tert-Butyl-2-(3,4-difluoro-phenyl)-6-(2-propan-2-yl-pyrazol-3-yl)-pyridine-4-carboxamide]
1180 nM |  | CC(C)c1ccc(-c2cc(C(=O)NC(C)(C)C)cc(-c3ccnn3C(C)C)n2)cc1 [Example 32, N-tert-Butyl-2-(4-propan-2-yl-phenyl)-6-(2-propan-2-yl-pyrazol-3-yl)-pyridine-4-carboxamide]
530 nM |  | CC(C)n1nccc1-c1cc(C(=O)NC(C)(C)C)cc(-c2ccc(F)c(Cl)c2)n1 [Example 33, N-tert-Butyl-2-(3-chloro-4-fluorophenyl)-6-(2-propan-2-yl-pyrazol-3-yl)-pyridine-4-carboxamide]
260 nM |  | Cc1ccc(-c2cc(C(=O)NC(C)(C)C)cc(-c3ccnn3C(C)C)n2)cc1 [Example 34, N-tert-Butyl-2-(4-methyl-phenyl)-6-(2-propan-2-yl-pyrazol-3-yl)-pyridine-4-carboxamide]
360 nM |  | COc1ccc(-c2cc(C(=O)NC(C)(C)C)cc(-c3ccnn3C(C)C)n2)cc1 [Example 35, N-tert-Butyl-2-(4-methoxy-phenyl)-6-(2-propan-2-yl-pyrazol-3-yl)-pyridine-4-carboxamide]
230 nM |  | CC(C)n1nccc1-c1cc(C(=O)NC(C)(C)C)cc(-c2ccc(Cl)c(F)c2)n1 [Example 36, N-tert-Butyl-2-(4-chloro-3-fluorophenyl)-6-(2-propan-2-yl-pyrazol-3-yl)-pyridine-4-carboxamide]
400 nM |  | Cc1ccc(-c2cc(C(=O)NC(C)(C)C)cc(-c3ccnn3C(C)C)n2)cc1F [Example 38, N-tert-Butyl-2-(3-fluoro-4-methyl-phenyl)-6-(2-propan-2-yl-pyrazol-3-yl)-pyridine-4-carboxamide]
450 nM |  | CC(C)n1nccc1-c1cc(C(=O)NC(C)(C)C#N)cc(-c2ccc(F)cc2)n1 [Example 45, N-(2-Cyanopropan-2-yl)-2-(4-fluorophenyl)-6-(2-propan-2-yl-pyrazol-3-yl)-pyridine-4-carboxamide]
